# Assay results from ChEMBL document CHEMBL1136840 (Bioorg Med Chem Lett, 2009).
# Molecular target: T1, Carbonic anhydrase 15 (Mus musculus, UniProt Q99N23)
# T1 sequence (Q99N23 whole entry): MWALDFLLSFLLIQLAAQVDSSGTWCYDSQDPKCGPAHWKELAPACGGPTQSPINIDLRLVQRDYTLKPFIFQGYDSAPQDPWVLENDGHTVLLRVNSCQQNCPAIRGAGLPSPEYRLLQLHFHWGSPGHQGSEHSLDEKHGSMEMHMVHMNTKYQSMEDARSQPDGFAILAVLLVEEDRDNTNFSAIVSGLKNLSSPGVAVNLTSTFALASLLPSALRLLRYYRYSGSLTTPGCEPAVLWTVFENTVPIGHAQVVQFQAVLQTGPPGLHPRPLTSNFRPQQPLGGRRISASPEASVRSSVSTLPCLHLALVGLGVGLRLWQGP
smiles,measurement,value
NS(N)(=O)=O [SULFAMIDE],Ki,37.4 µM
